Data on four compounds can be found in US10683297B2 (Sunshine Lake Pharma Co., Ltd., priority 2017, dated 2020).

For assay [1], the target named is T1, FLT3 (h) (Homo sapiens, UniProt P36888).
T1 construct: purchased Millipore UK Ltd (assays performed there as a service)
T1 sequence (P36888 27-993): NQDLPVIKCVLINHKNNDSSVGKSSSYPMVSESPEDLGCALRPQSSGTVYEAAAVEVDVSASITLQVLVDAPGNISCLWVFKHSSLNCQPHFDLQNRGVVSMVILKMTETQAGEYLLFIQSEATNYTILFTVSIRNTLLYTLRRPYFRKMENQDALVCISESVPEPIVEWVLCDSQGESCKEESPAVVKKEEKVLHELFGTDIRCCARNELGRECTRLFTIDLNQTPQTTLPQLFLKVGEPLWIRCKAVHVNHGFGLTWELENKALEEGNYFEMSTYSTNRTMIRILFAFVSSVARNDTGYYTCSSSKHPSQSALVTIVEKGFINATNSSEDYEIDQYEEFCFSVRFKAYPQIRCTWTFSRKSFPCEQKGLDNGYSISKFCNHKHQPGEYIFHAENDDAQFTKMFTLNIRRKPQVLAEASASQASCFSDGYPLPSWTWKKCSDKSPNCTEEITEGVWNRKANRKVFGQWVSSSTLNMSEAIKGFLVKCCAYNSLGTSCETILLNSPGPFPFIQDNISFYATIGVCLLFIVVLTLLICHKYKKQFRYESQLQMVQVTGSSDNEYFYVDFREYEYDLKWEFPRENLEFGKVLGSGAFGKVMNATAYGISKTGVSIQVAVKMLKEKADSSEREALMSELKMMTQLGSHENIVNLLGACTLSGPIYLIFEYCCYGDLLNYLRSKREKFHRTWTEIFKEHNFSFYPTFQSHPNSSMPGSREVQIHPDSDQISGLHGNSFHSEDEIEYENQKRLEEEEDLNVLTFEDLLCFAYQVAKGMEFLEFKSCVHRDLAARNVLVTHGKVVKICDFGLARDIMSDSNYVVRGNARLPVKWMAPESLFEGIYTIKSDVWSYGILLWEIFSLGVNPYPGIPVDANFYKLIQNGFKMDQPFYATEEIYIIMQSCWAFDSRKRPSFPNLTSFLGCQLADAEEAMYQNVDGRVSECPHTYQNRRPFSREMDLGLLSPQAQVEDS
The experiment in a line: FLT3 (h) kinase assay. The class given is biochemical. Conditions: [γ-33P-ATP] 10 μM or KM values; cells of the FLT3 (h) column without (Flt4) tag. On the procedure: Kinase assays can be performed by measurement of incorporation of γ-^33P ATP into immobilized myelin basic protein (MBP). High binding white 384 well plates (Greiner) are coated with MBP (Sigma # M-1891) by incubation of 60 μL well of 20 μg/mL MBP in Tris-buffered saline (TBS; 50 mM Tris pH 8.0, 138 mM NaCl, 2.7 mM KCl) for 24 h at 4° C. Plates are washed 3× with 100 μL TBS. Kinase reactions are carried out in a total volume of 34 μL in kinase buffer (according to the need to make, for example, 5 mM Hepes pH 7.6, 15 mM NaCl, 0.01% bovine gamma globulin (Sigma #1-5506), 10 mM MgCl2, 1 mM DTT, 0.02% TritonX-100). Compound dilutions are performed in DMSO and added to assay wells to a final DMSO concentration of 1%. Each data point is measured in duplicate, and at least two duplicate assays are performed for each individual compound determination. Enzyme is added to final concentrations of 10 nM or 20 nM, for example. A mixture of unlabeled ATP and γ-^33P ATP is added to start the reaction (2×10^6 cpm of γ-^33P ATP per well (3000 Ci/mmole) and 10 μM unlabeled ATP, typically. The reactions are carried out for 1 hour at room temperature with shaking. Plates are washed 7× with TBS, followed by the addition of 50 μL well scintillation fluid (Wallac). Plates are read using a Wallac Trilux counter. This is only one format of such assays; various other formats are possible, as known to one skilled in the art.
The above assay procedure can be used to determine the IC50 for inhibition and/or the inhibition constant, Ki. […] The IC50 value is estimated by preparing a 10 point curve using a ½ log dilution series (for example, a typical curve may be prepared using the following compound concentrations: 3 μM, 1 μM, 0.3 μM, 0.1 μM, 0.03 μM, 0.01 μM, 0.003 μM, 0.001 μM, 0.0003 μM and 0 μM).
FLT3 (h) is incubated with 8 mM MOPS pH 7.0, 0.2 mM EDTA, 50 μM […], 10 mM MgAcetate and [γ-^33P-ATP] […] The reaction is initiated by the addition of the MgATP mix. […]

Assay [2] relates to PMA-induced increase in mouse ear thickness and weight. The experiment in a line: Topical PMA-induced acute atopic dermatitis in ICR mice. It counts as in vivo. Conditions: ICR female mice, 0.3 mg/ear/bid topical. On the procedure: ICR female mice (20-30 g), five mice or nine mice/group, were used in this study. Five micrograms of PMA (phorbol 12-myristate 13-acetate) in 20 μL of ethanol was applied topically to the anterior and posterior surface of the right ear of each mouse. Twenty microliters of vehicle (ethanol/acetone ([…])=1/1); 0.3 mg of EX. 68 ([…]); EX. 76, EX. 50, EX. 92 or EX. 65 (0.3 mg […]) were administrated to the same areas 30 minutes before and 15 minutes after PMA application. The thickness of right ears of each mouse was measured 6 hours after PMA stimulation. Ear weight of right ears of each mouse was weighed with analytical balance Each value represents the Mean±Sem. Statistical significance compared with model groups (*P<0.05; **P<0.01). Tables 5-1, 5-2 and 5-3 listed the inhibitory effect on PMA-induced increase in mouse ear thickness and weight. The compounds of the present invention have a good inhibitory effect on PMA-induced increase in mouse ear thickness and weight.

Marks after values point to notes of the source that are not given here.

Consider `CCC1CN(c2ccc(C#N)cn2)CCC1Nc1nc(Nc2ccn3c(C)cnc3c2)ncc1Cl` (stereo not shown) [Example 2, 6-(4-((5-chloro-2-((3-methylimidazo[1,2-a]pyridin-7-yl)amino)pyrimidin-4-yl)amino)-3-ethylpiperidin-1-yl)nicotinonitrile], for which half-maximal inhibition in assay [1] (IC50) was put at 0.287 µM. That is a sub-micromolar value. The same measure, in the same setting: the same measure for `CCC1CN(c2ccc(C#N)nn2)CCC1Nc1nc(Nc2ccn3c(C)cnc3c2)ncc1Cl` (stereo not shown) [Example 3, 6-(4-((5-chloro-2-((3-methylimidazo[1,2-a]pyridin-7-yl)amino)pyrimidin-4-yl)amino)-3-ethylpiperidin-1-yl)pyridazine-3-carbonitrile]: 0.591 µM; for `Cc1cnc2cc(Nc3ncc(Cl)c(NC4CCN(c5ccc(C#N)nn5)CC4)n3)ccn12` [Example 12, 6-(4-((5-chloro-2-((3-methylimidazo[1,2-a]pyridin-7-yl)amino)pyrimidin-4-yl)amino)piperidin-1-yl)pyridazine-3-carbonitrile]: 0.667 µM. For the compound `CC(C)(O)c1cnc2cc(Nc3ncc(Cl)c(NC4CCN(c5ccc(C#N)cn5)CC4)n3)ccn12` [Example 68, 6-(4-((5-chloro-2-((3-(2-hydroxypropan-2-yl)imidazo[1,2-a]pyridin-7-yl)amino)pyrimidin-4-yl)amino)piperidin-1-yl)nicotinonitrile], the “Weight Inhibition ratio” value in assay [2] stood at 80.6%. Also, the “thickness (right ear)” value in assay [2] (30 minutes before and 15 minutes after PMA, 6 hours after PMA, Mean±Sem) is given as 0.219 ± 0.007** mm. Further, the “Weight (right ear)” value in assay [2] (30 minutes before and 15 minutes after PMA, Mean±Sem) was 18.11 ± 1.14* mg. The “thickness Inhibition ratio” value in assay [2] (6 hours after PMA) amounted to 86.6%.

One may read the IC50 as the concentration needed to halve the response being measured.
